Experimental data as given in patent publication US11498921B1, “Pyrimidine or pyridine compounds, preparation method therefor and pharmaceutical uses thereof” (INVENTISBIO CO., LTD., priority 2014, dated 2022).
Structures can show the parent of a compound that is named as a salt.

Key:
Format in all cases: cell-based
[1] = system: NCI-H2073 cells (wild-type EGFR human non-small cell lung cancer); experiment: Cell growth inhibition (Cell Titer-Glo), NCI-H2073; details: 72 hours drug treatment, 3 nM to 10 μM
Method: (§1) Experiment of Cell Growth Inhibition
The compounds that were preferentially targeted for EGFR targeting certain mutations and relatively weak in wild-type EGFR were identified by determining the growth of cells. The NCI-H1975 cell line is a human non-small cell lung cancer cell containing T790M and L858R EGFR mutations, and the cell is grown in RPMI-1640 medium (GIBCO) containing 10% fetal bovine serum (FBS). The LoVo cell line is a wild-type EGFR human colon adenocarcinoma cell, and is grown in F-12K medium (GIBCO) containing 10% FBS. NCI-H2073 cell line is a wild-type EGFR human non-small cell lung cancer cell and grown in ACL-4 medium containing 10% FBS. The growth rate of NCI-H1975, LoVo and NCI-H2073 cells was detected by Cell Titer-Glo luminescence activity assay (Promega #G7572).
(§2) Briefly, trypsin was used for digesting cells in the logarithmic growth phase. 96-well plates were seeded with 50,000 Lovo or NCI-H2073 cells, 2500-3000 NCI-H1975 cells per well and provided with blank control wells containing only nutrient solution without inoculated cell, and the plates were incubated in a humidified incubator with 5% CO2 at 37° C. After 24 hours, the DMSO solution of the different compounds was diluted with a cell culture medium at 3.16 times per time to eight different concentrations from high to low levels. The concentration of test drug in NCI-H1975 cells was from 0.03 nM to 100 nM, and that in LoVo and NCI-H2073 cells was from 3 nM to 10 μM. The cell culture medium containing the different compounds was then added to a 96-well cell plate in which one cell control well comprising cell culture medium only containing DMSO was provided. After a drug treatment for 72 hours, the cell plates were removed from the incubator and allowed to stand at room temperature for 30 minutes. Next, Cell Titer-Glo reagent was added to the wells and the 96-well cell plate was shaken at room temperature for 10 minutes to induce cell lysis. The 96-well cell plate was placed on the bench for 2 minutes to stabilize the luminescence signal. Finally, the 96-well cell plate was placed in an EnVision Multi-labeled Microplate Reader (PerkinElmer), and the signal was read with an integral time of 0.5 seconds.
(§3) Formula: Percentage of cell growth inhibition %=(maximum signal−compound signal)/(maximum signal−minimum signal)*100%
(§4) The maximal signal was obtained from the cell control well which were treated with the DMSO solution having no any compound;
(§5) The compound signal was obtained from the drug-treated cell wells to which the compound was added;
(§6) The minimum signal was obtained from a blank control well to which no cells and only nutrient solution was added.

[2] = system: NCI-H1975 cells (T790M and L858R EGFR mutations); experiment: Cell growth inhibition (Cell Titer-Glo), NCI-H1975; details: Homo sapiens, 72 hours drug treatment, 0.03 nM to 100 nM
Method: as §1
(§7) The LoVo cell line is a wild-type EGFR human colon adenocarcinoma cell, and is grown in F-12K medium (GIBCO) containing 10% FBS. NCI-H2073 cell line is a wild-type EGFR human non-small cell lung cancer cell and grown in ACL-4 medium containing 10% FBS. The growth rate of NCI-H1975, LoVo and NCI-H2073 cells was detected by Cell Titer-Glo luminescence activity assay (Promega #G7572).
as §2, with “After 24 hours, the DMSO solution of the different compounds was diluted with a cell culture medium at 3.16 times per time to eight different concentrations from high to low levels.” left out
as §3, §4, §5, §6

[3] = system: LoVo cells (wild-type EGFR human colon adenocarcinoma); experiment: Cell growth inhibition (Cell Titer-Glo), LoVo; details: 72 hours drug treatment, 3 nM to 10 μM
Method: as §1, §7
as §2, with “After 24 hours, the DMSO solution of the different compounds was diluted with a cell culture medium at 3.16 times per time to eight different concentrations from high to low levels.” left out
as §3, §4, §5, §6

Row | IC50 [1] | IC50 [2] | IC50 [3] | Compound
1 | 268 nM | 4.5 nM |  | C=CC(=O)Nc1cc(Nc2nccc(-n3c(=O)n(CC(F)F)c4ccccc43)n2)c(OC)cc1N(C)CCN(C)C [109. (MsOH)2]
2 |  | > 100 nM | 5130 nM | C=CC(=O)Nc1cc(Nc2nccc(-c3cn(C)c4ccccc34)n2)c(OC)cc1N1CCC(N2CCOCC2)C1 (stereo not drawn) [26. (MsOH)2]
3 |  | 35.2 nM | 1720 nM | C=CC(=O)Nc1cc(Nc2nccc(-c3cn(C)c4ccccc34)n2)c(OC)cc1N(C)CCN1CCCC1 [12. (MsOH)2]
4 | 170 nM | 6.4 nM |  | C=CC(=O)Nc1cc(Nc2nccc(-c3cn(S(=O)(=O)C(C)C)c4ccccc34)n2)c(OC)cc1N(C)CCN(C)C [102. (MsOH)2]
5 | 193 nM | 5.5 nM |  | C=CC(=O)Nc1cc(Nc2nccc(-c3cn(S(=O)(=O)CC)c4ccccc34)n2)c(OC)cc1N(C)CCN(C)C [101. (MsOH)2]
6 |  | > 100 nM | 538 nM | C=CC(=O)Nc1cc(Nc2nccc(-c3cn(C)c4ccccc34)n2)c(OC)cc1OC1CN(C)C1 [Example 28]
7 | 155 nM | 4.7 nM |  | C=CC(=O)Nc1cc(Nc2nccc(-n3c(=O)n(C(C)C)c4ccccc43)n2)c(OC)cc1N(C)CCN(C)C [106. (MsOH)2]
8 | 280 nM | 8.2 nM |  | [2H]C([2H])([2H])N(CCN(C)c1cc(OC)c(Nc2nccc(N3CC(C)(C)c4ccccc43)n2)cc1NC(=O)C=C)C([2H])([2H])[2H] [57. (HCl)n]
9 |  | > 100 nM | > 10000 nM | C=CC(=O)Nc1cc(Nc2nccc(-c3cn(C)c4ccccc34)n2)c(OC)cc1N1CCC(OC)C1 (stereo not drawn) [17. (MsOH)2]
10 |  | 48.4 nM | 912 nM | C=CC(=O)Nc1cc(Nc2nccc(N3CCCc4ccccc43)n2)c(OC)cc1N(C)CCN(C)C [35. (MsOH)3]
11 |  | > 100 nM | > 10000 nM | C=CC(=O)Nc1cc(Nc2nccc(-c3cn(C)c4ccccc34)n2)c(OC)cc1OCCOC [32. (MsOH)]
12 |  | > 100 nM | 444 nM | C=CC(=O)Nc1cc(Nc2nccc(-c3cn(C)c4ccccc34)n2)c(OC)cc1N1CCC(N(C)C)CC1 [13. (MsOH)2]
13 | 103 nM | 2.9 nM |  | C=CC(=O)Nc1cc(Nc2nccc(N3c4ccccc4N(C)S3(=O)=O)n2)c(OC)cc1N(C)CCN(C)C [110. (MsOH)2]
14 | 151 nM | 1.9 nM |  | [2H]C([2H])([2H])n1c(=O)n(-c2ccnc(Nc3cc(NC(=O)C=C)c(N(C)CCN(C)C)cc3OC)n2)c2ccccc21 [65. (MsOH)2]
15 |  | > 100 nM | 2550 nM | C=CC(=O)Nc1cc(Nc2nccc(-c3cn(C)c4ccccc34)n2)c(OC)cc1OCCN1CCOCC1 [30. (MsOH)2]
16 |  | > 100 nM | 954 nM | C=CC(=O)Nc1cc(Nc2nccc(-c3cn(C)c4ccccc34)n2)c(OC)cc1N1CCC(N2CCN(C)CC2)C1 (stereo not drawn) [20. (MsOH)4]
17 |  | 43.6 nM | 520 nM | C=CC(=O)Nc1cc(Nc2nccc(-c3cn(C)c4ccccc34)n2)c(OC)cc1N1CCC(N2CCC2)C1 (stereo not drawn) [18. (MsOH)3]
18 |  | > 100 nM | 846 nM | C=CC(=O)Nc1cc(Nc2nccc(-c3cn(C)c4ccccc34)n2)c(OC)cc1OCCN1CCN(C)CC1 [31. (MsOH)3]
19 |  | 84 nM | 1810 nM | C=CC(=O)Nc1cc(Nc2nccc(-c3cn(C)c4ccccc34)n2)c(OC)cc1N1CCC(N2CCOCC2)CC1 [27. (MsOH)3]
20 |  | 35.4 nM | 1270 nM | C=CC(=O)Nc1cc(Nc2nccc(-c3cn(C)c4ccccc34)n2)c(OC)cc1N(C)CCN1CCC1 [11. (MsOH)2]
21 | 595 nM | 26.5 nM |  | C=CC(=O)Nc1cc(Nc2nccc(-c3nn(C(C)C)c4ccccc34)n2)c(OC)cc1N(C)CCN(C)C [113. (MsOH)2]

Row | IC50 [1] | IC50 [2] | IC50 [3] | Compound
22 | 300 nM | 13.1 nM |  | C=CC(=O)Nc1cc(Nc2nccc(-c3cn(S(=O)(=O)C4CC4)c4ccccc34)n2)c(OC)cc1N(C)CCN(C)C [103. (MsOH)2]
23 | 201 nM | 3.6 nM |  | C=CC(=O)Nc1cc(Nc2nccc(-n3c(=O)n(CC)c4ccccc43)n2)c(OC)cc1N(C)CCN(C)C [66. (MsOH)3]
24 | 185 nM | 7.4 nM |  | C=CC(=O)Nc1cc(Nc2nccc(-n3c(=O)n(C4CC4)c4ccccc43)n2)c(OC)cc1N(C)CCN(C)C [107. (MsOH)2]
25 | 64 nM | 0.4 nM |  | [2H]C([2H])([2H])N(CCN(C)C)c1cc(OC)c(Nc2nccc(-c3cn(S(C)(=O)=O)c4ccccc34)n2)cc1NC(=O)C=C [71. (MsOH)2]
26 |  | > 100 nM | 5250 nM | C=CC(=O)Nc1cc(Nc2nccc(-c3cn(C)c4ccccc34)n2)c(OC)cc1N1CC(N2CCOCC2)C1 [25. (MsOH)2]
27 |  | 90.8 nM | 2280 nM | C=CC(=O)Nc1cc(Nc2nccc(-c3cn(C)c4ccccc34)n2)c(OC)cc1N1CC(N2CCCC2)C1 [Example 23]
28 |  | > 100 nM | 2580 nM | C=CC(=O)Nc1cc(Nc2nccc(-c3cn(C)c4ccccc34)n2)c(OC)cc1N1CC(N2CCN(C)CC2)C1 [24. (MsOH)3]
29 |  | 38.2 nM | 738 nM | C=CC(=O)Nc1cc(Nc2nccc(-c3cn(C)c4ccccc34)n2)c(OC)cc1N(C)CCN(C)CCOC [54. (HCl)n]
30 |  | > 100 nM | 1430 nM | C=CC(=O)Nc1cc(Nc2nccc(-c3cn(C)c4ccccc34)n2)c(OC)cc1N(CCOC)CCOC [33. HCl]
31 |  | 48.5 nM | 955 nM | C=CC(=O)Nc1cc(Nc2nccc(-c3cn(C)c4ccccc34)n2)c(OC)cc1N1CCC(N2CCCC2)C1 (stereo not drawn) [19. MsOH]
32 |  | 155 nM | 1170 nM | C=CS(=O)(=O)Nc1cc(Nc2nccc(-c3cn(C)c4ccccc34)n2)c(OC)cc1N(C)CCN1CCCC1 [46. (MsOH)2]
33 |  | > 100 nM | 1090 nM | C=CS(=O)(=O)Nc1cc(Nc2nccc(-c3cn(C)c4ccccc34)n2)c(OC)cc1N(C)CCN(C)C [45. (HCl)n]
34 |  | > 100 nM | > 10000 nM | C=CC(=O)Nc1cc(Nc2nccc(-c3cn(C)c4ccccc34)n2)c(OC)cc1N1CC(OC)C1 [21. (MsOH)2]
35 |  | 134 nM | 1620 nM | C=CC(=O)Nc1cc(Nc2nccc(-c3cn(C)c4ccccc34)n2)c(OC)cc1N(C)CCCN(C)C [47. (MsOH)2]
36 |  | 18.1 nM | 2170 nM | C=CC(=O)Nc1cc(Nc2cc(-c3cn(C)c4ccccc34)ccn2)c(OC)cc1N(C)CCN(C)C [43. (HCl)n]
37 |  | > 100 nM | 4980 nM | C=CC(=O)Nc1cc(Nc2nccc(-c3cn(C)c4ccccc34)n2)c(OC)cc1N(C)CCOC [6. (HCl)n]
38 |  | > 100 nM | 3020 nM | C=CC(=O)Nc1cc(Nc2nccc(-c3cn(C)c4ccccc34)n2)c(OC)cc1N(C)CCS(C)(=O)=O [10. (MsOH)3]
39 |  | 39.9 nM | 446 nM | C=CC(=O)Nc1cc(Nc2nccc(-c3cn(C)c4ccccc34)n2)c(OC)cc1N1CCCC(N(C)C)C1 (stereo not drawn) [34. (MsOH)3]
40 |  | > 100 nM | 481 nM | C=CC(=O)Nc1cc(Nc2nccc(-c3cn(C)c4ccccc34)n2)c(OC)cc1N1CCC(N2CCC2)CC1 [14. (MsOH)2]
41 |  | > 100 nM | 3230 nM | C=CC(=O)Nc1cc(Nc2nccc(-n3nc(C)c4ccccc43)n2)c(OC)cc1N(C)CCN(C)C [55. (HCl)n]
42 |  | > 100 nM | 333 nM | C=CC(=O)Nc1cc(Nc2nccc(-c3cn(C)c4ccccc34)n2)c(OC)cc1N1CCC(N2CCCC2)CC1 [15. (MsOH)2]
